Test results published in paper PMC12195740, “Discovery of Novel Imidazothiazole-Based Hydroxamic Acid Derivatives as Potent Indoleamine 2,3-Dioxygenase 1 and Histone Deacetylase 6 Dual Inhibitors” (Molecules, 2025).

How the values were obtained:
rhIDO1 = molecular target: T1, rhIDO1 (Homo sapiens, UniProt P14902); experiment: IDO1 inhibition assay; type: biochemical; conditions: means ± S.D. of three independent experiments
T1 construct: purchased
Description: Section S1. Biological assays […]
Section S 1.2 IDO1 inhibition assays
IDO1 inhibition assays were carried out according to the manufacturers’ procedures, as described previously. The standard assay mixture (100 μL) contained 50 mM of potassium phosphate buffer (pH = 6.5), 10 mM ascorbate, 10 μM methylene blue, 100 μg/mL catalase, 1 mM L-tryptophan and 10 μg/mL of rhIDO1. The plate was incubated at 37 °C in a dark environment, and reactions were terminated after 60 min by the addition of 50 μL of fluorogenic developer solution and further incubated at 45 °C in dark for 3 h. Then, the plate was allowed to cool to room temperature for at least 1 h. After centrifugation at 1500g for 5 min at 20 °C, the fluorescence […]
M1000 Pro, Tecan US, Morrisville, NC) in an end-point mode. […]

HDAC1 = HDAC1 (Homo sapiens, UniProt Q13547); experiment: HDAC isoform selectivity assay, HDAC1; type: biochemical
HDAC11 = molecular target: T2, HDAC11 (Homo sapiens, UniProt Q96DB2); experiment: HDAC isoform selectivity assay, HDAC11; type: biochemical; conditions: read-out: HDAC11 % inhibition rate at 10 μM
T2 sequence (Q96DB2 1-347): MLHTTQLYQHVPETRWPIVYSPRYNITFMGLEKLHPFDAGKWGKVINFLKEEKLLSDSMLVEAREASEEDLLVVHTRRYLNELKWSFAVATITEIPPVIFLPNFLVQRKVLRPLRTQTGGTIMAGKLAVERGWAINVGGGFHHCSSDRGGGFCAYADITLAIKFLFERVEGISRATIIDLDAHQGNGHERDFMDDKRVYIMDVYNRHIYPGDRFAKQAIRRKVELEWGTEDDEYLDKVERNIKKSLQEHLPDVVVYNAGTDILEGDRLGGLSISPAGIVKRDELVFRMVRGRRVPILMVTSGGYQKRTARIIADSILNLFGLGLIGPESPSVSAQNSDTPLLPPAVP

[1] = system: Ac-α-tubulin (substrate for HDAC6); experiment: Western blot of Ac-α-tubulin in HCT-116 cells; type: cell-based; conditions: HCT-116, 5−20 μM, 24 h
Description: Since HDACs regulate the acetylation status of histone and nonhistone proteins in cells, the acetylation levels of histone H3 (a known substrate for HDACs 1, 2, and 3) and α-tubulin (a known substrate for HDAC6) are frequently used as markers of cellular HDAC activity. […] HCT-116 cells were incubated with compound 10e (5−20 μM) for 24 h, and the levels of acetylation of histone H3 and α-tubulin were detected by the Western blot. […]
with 75% cold ethanol at 4 °C overnight. After that, fixed cells were washed with PBS. Then, cells were isolated by centrifugation and stained with propidium iodide (KeyGEN BioTECH, China) for 30 min. The samples were measured using flow cytometry and analyzed by Flowjo software.
Section S 1.6 Western blot assay
Total cell lysates from cultured HCT-116 cells after treatment with compound 10e as mentioned earlier were obtained by lysing the cells in ice-cold RIPA buffer with protease and phosphatase inhibitor and stored at -20°C for future use. The protein concentrations were quantified by the Bradford method (Bio-Rad) using a Multimode Varioscan instrument (Thermo Fischer Scientific). […]
The in vivo antitumor activity of compound 10e was evaluated in the mouse colon carcinoma cell line CT-26 in BALB/c mice as described previously. […]

[2] = General toxicity in CT26 tumor-bearing BALB/c mice (body weight, H&E of organs); type: in vivo; conditions: 150 mg/kg ip every 3 days for 21 days
Description: After that, fixed cells were washed with PBS. Then, cells were isolated by centrifugation and stained with propidium iodide (KeyGEN BioTECH, China) for 30 min. The samples were measured using flow cytometry and analyzed by Flowjo software.
Section S 1.6 Western blot assay […]
earlier were obtained by lysing the cells in ice-cold RIPA buffer with protease and phosphatase inhibitor and stored at -20°C for future use. The protein concentrations were quantified by the Bradford method (Bio-Rad) using a Multimode Varioscan instrument (Thermo Fischer Scientific). […]
and transferred to a polyvinylidene difluoride (PVDF) membrane (Amersham Biosciences). After the membrane was blocked at room temperature for 2 h in blocking solution, primary antibody was added and incubated at 4°C overnight. Ac-α-tubulin, Ac-histone H3 and GAPDH antibodies were purchased from Imgenex, USA. After three TBST washes, the membrane was incubated with corresponding horseradish peroxidase-labeled secondary antibody (1:2,000) (Santa Cruz) at room temperature for 1 h. Membranes were washed with TBST three times for 15 min and the protein bands were detected with chemiluminescence reagent (Thermo Fischer Scientific). The X-ray films were developed using developer and fixed with fixer solution.
Section S 1.7 In vivo antitumor efficacy […]
line CT-26 in BALB/c mice as described previously. Five-week-old male BALB/c mice were purchased from the Shanghai Ling Chang biotechnology company (China), and tumors were induced through subcutaneous injection of 1 × 10^7 cells in 100 µL of sterile PBS into the dorsal region. The animals were divided into four groups, starting on the second day. When the tumors reached a volume of 50−100 mm3 in all mice, the first group was administered intraperitoneally with an equivalent volume of 5% dextrose as the vehicle control. The second group was treated with […]
treated with complex 10e at doses of 150 mg/kg body weight once every 3 days for 3 weeks, respectively. All compounds were dissolved in vehicle. Tumor volumes and body weights were […]

HCT-116 cells = experiment: Cell viability (MTT) assay, HCT-116; conditions: Homo sapiens, HCT-116, 48 h, read-out: Antiproliferative IC50, HCT-116
Description: Section S 1.3 Cell viability assays
(§1) Cell Bank at the Chinese Academy of Sciences.
(§2) DMEM and FBS were obtained from Gibco-Thermo (BRL Co. Ltd., USA).
(§3) another 48 h. The cells were stained with 10 μl of MTT at incubator for approximately 4 h. The medium was discarded and replaced by 100 mL DMSO. The O.D. value was read at 570/630 nm with a spectrophotometer.

MDA-MB-231 cells = experiment: Cell viability (MTT) assay, MDA-MB-231; conditions: Homo sapiens, MDA-MB-231, 48 h, read-out: Antiproliferative IC50, MDA-MB-231
Description: Section S 1.3 Cell viability assays
as §1, §2, §3

Chain of HDAC1 (Q13547 whole entry, species assumed, canonical isoform): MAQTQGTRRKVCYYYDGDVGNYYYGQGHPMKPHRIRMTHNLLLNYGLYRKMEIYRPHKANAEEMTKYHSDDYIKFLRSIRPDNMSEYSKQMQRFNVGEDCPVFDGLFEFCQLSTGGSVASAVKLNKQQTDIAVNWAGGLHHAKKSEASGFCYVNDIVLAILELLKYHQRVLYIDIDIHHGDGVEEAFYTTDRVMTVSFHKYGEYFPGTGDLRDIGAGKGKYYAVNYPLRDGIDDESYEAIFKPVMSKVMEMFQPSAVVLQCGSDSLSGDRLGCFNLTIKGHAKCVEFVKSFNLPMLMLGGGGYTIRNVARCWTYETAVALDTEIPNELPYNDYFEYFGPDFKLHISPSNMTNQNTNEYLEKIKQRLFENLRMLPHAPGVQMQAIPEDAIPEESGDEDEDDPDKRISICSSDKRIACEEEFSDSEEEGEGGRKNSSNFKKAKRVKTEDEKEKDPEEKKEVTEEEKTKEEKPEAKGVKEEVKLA
T1 sequence (P14902 whole entry): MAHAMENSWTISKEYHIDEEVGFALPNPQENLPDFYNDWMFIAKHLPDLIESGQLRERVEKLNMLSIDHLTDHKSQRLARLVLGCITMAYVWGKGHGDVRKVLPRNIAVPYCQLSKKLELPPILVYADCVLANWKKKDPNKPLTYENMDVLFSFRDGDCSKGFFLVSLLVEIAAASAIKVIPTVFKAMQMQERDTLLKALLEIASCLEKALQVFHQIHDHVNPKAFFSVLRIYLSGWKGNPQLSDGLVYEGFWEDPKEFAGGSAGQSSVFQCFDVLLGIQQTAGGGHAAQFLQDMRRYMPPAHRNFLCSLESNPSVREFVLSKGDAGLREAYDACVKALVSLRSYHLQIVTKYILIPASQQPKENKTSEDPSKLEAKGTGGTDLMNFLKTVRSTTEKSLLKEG

IC50 (rhIDO1): 0.086 ± 0.02 µM | IC50 (HDAC1): 1.08 µM | inhibition at 10 µM (HDAC11): 24.4% | IC50 (HCT-116 cells): 16.4 ± 3.76 µM | IC50 (MDA-MB-231 cells): 43.7 ± 1.89 µM
SMILES: O=C(CCCCCCNc1ccc(NC(=O)c2cnc3scc(-c4ccc(Br)cc4)n23)cc1)NO [Compound 10e, 3-(4-Bromophenyl)-N-{4-[(7-(hydroxyamino)-7-oxoheptyl)amino]phenyl}imidazo[2,1-b]thiazole-5-carboxamide]
Ac-α-tubulin levels [1]: markedly increased | histology of liver, spleen, and kidney (H&E staining) [2]: no obvious histological differences | influence on body weight of the mice ([2]; versus vehicle group): no obvious influence
